Data: US9855270B2, “Methods and compositions for modulating estrogen receptor mutants” (priority 2014, dated 2018)

Tested on: mutant ERα
Conditions: 24 hr; estrogen-depleted medium containing 100 ng/ml Dox; absence of E2

`CC/C(=C(\c1ccccc1)c1ccc(OCCN(C)C)cc1)c1ccccc1` [tamoxifen] was tested, and the “mutant ERα degradation” value was “not”.
